Source: PubChem BioAssay AID248 (DTP/NCI, 2004)
Several values for one entry are separate records, joined by “and”; a condition that tells them apart may be missing. Identical values can stand only once. Inconclusive results and toxic doses are left out. Cut-off read from the data, not from the text of the source: active = T/C of 150% or more; inactive = T/C below 125%.

Tested on: L1210 leukemia ip in BDF1 mice, survival T/C
Assay: NCI In Vivo Anticancer Drug Screen. Data for tumor model L1210 Leukemia (intraperitoneal) in B6D2F1 (BDF1) mice
Details: endpoint: mean survival time, higher = longer survival
Procedure, shortened: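 Value reflects the ratio of survival in compound-treated mice to survival in vehicle-treated controls, with both groups carrying the same transplanted tumor.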

[1] = dose: 50.0 mg/kg/injection, schedule: Q01DX001 (ip), vehicle: Klucel (hydroxypropylcellulose) (HPC)
[2] = dose: 100.0 mg/kg/injection, schedule: Q01DX001 (ip), vehicle: Klucel (hydroxypropylcellulose) (HPC)
[3] = dose: 200.0 mg/kg/injection, schedule: Q01DX001 (ip), vehicle: Klucel (hydroxypropylcellulose) (HPC)
[4] = dose: 100.0 mg/kg/injection, schedule: Q04DX003 (ip), vehicle: Klucel (hydroxypropylcellulose) (HPC)
[5] = dose: 200.0 mg/kg/injection, schedule: Q04DX003 (ip), vehicle: Klucel (hydroxypropylcellulose) (HPC)
[6] = dose: 400.0 mg/kg/injection, schedule: Q04DX003 (ip), vehicle: Klucel (hydroxypropylcellulose) (HPC)
[7] = dose: 100.0 mg/kg/injection, schedule: Q01DX001 (ip), vehicle: saline
[8] = dose: 200.0 mg/kg/injection, schedule: Q01DX001 (ip), vehicle: saline
[9] = dose: 400.0 mg/kg/injection, schedule: Q01DX001 (ip), vehicle: saline
[10] = dose: 100.0 mg/kg/injection, schedule: Q04DX002 (ip), vehicle: saline with Tween-80
[11] = dose: 100.0 mg/kg/injection, schedule: Q01DX009 (ip), vehicle: saline with Tween-80
[12] = dose: 200.0 mg/kg/injection, schedule: Q01DX009 (ip), vehicle: saline with Tween-80
[13] = dose: 100.0 mg/kg/injection, schedule: Q01DX001 (ip), vehicle: carboxymethylcellulose (CMC)
[14] = dose: 200.0 mg/kg/injection, schedule: Q01DX001 (ip), vehicle: carboxymethylcellulose (CMC)
[15] = dose: 400.0 mg/kg/injection, schedule: Q01DX001 (ip), vehicle: carboxymethylcellulose (CMC)
[16] = dose: 25.0 mg/kg/injection, schedule: Q01DX009 (ip), vehicle: saline with Tween-80
[17] = dose: 50.0 mg/kg/injection, schedule: Q01DX009 (ip), vehicle: saline with Tween-80
[18] = dose: 50.0 mg/kg/injection, schedule: Q01DX001 (ip), vehicle: saline
[19] = dose: 100.0 mg/kg/injection, schedule: Q04DX002 (ip), vehicle: Klucel (hydroxypropylcellulose) (HPC)
[20] = dose: 200.0 mg/kg/injection, schedule: Q04DX002 (ip), vehicle: Klucel (hydroxypropylcellulose) (HPC)
[21] = dose: 400.0 mg/kg/injection, schedule: Q04DX002 (ip), vehicle: Klucel (hydroxypropylcellulose) (HPC)

Measured: T/C

CCc1nc(=O)c2ccccc2n1C
inactive: dose: 1.5 mg/kg/injection, schedule: Q01DX001 (ip), vehicle: saline 100 % of control | dose: 3.0 mg/kg/injection, schedule: Q01DX001 (ip), vehicle: saline 95 % of control | dose: 6.0 mg/kg/injection, schedule: Q01DX001 (ip), vehicle: saline 107 % of control

CN1CCC(OC(=O)C(C)(O)C#Cc2ccccc2)CC1 (stereo not drawn)
inactive: [1] 102 % of control | [2] 97 % of control | [3] 100 % of control

Clc1ccccc1C(c1ccccc1)(c1ccc2ccccc2c1)n1ccnc1 (stereo not drawn)
inactive: [4] 102 % of control | [5] 101 % of control | [6] 101 % of control

c1ccc(CN2CCNCC2)cc1
inactive: dose: 6.25 mg/kg/injection, schedule: Q01DX009 (ip), vehicle: saline 93 % of control | dose: 12.5 mg/kg/injection, schedule: Q01DX009 (ip), vehicle: saline 93 % of control | dose: 25.0 mg/kg/injection, schedule: Q01DX009 (ip), vehicle: saline 94 % of control

CSc1nc2c(=O)[nH]cnc2n1C1OC(CO)C(O)C1O (stereo not drawn)
inactive: [7] 97 % of control | [8] 111 % of control | [9] 103 % of control

Nc1nc(N)nc(-c2ccccc2N=NN2CCCC2)n1
inactive: [4] 105 % of control | [5] 98 % of control | [6] 95 % of control

COC(=O)c1cn2ccc(C#N)cc2c1C(=O)OC
inactive: [10] 89 % of control | dose: 200.0 mg/kg/injection, schedule: Q04DX002 (ip), vehicle: saline with Tween-80 95 % of control | dose: 400.0 mg/kg/injection, schedule: Q04DX002 (ip), vehicle: saline with Tween-80 95 % of control

CCCSCC(C)C
inactive: [11] 108 % of control | [12] 98 % of control

CC(=O)N=C(N)N(/N=C(C)\C=N\N(C(C)=O)C(N)=NC(C)=O)C(C)=O
inactive: dose: 15.0 mg/kg/injection, schedule: Q01DX Z (ip), vehicle: carboxymethylcellulose (CMC) 96 % of control | dose: 30.0 mg/kg/injection, schedule: Q01DX Z (ip), vehicle: carboxymethylcellulose (CMC) 96 % of control | dose: 60.0 mg/kg/injection, schedule: Q01DX Z (ip), vehicle: carboxymethylcellulose (CMC) 93 % of control and 91 % of control | dose: 120.0 mg/kg/injection, schedule: Q01DX Z (ip), vehicle: carboxymethylcellulose (CMC) 97 % of control and 90 % of control | dose: 240.0 mg/kg/injection, schedule: Q01DX Z (ip), vehicle: carboxymethylcellulose (CMC) 92 % of control | dose: 480.0 mg/kg/injection, schedule: Q01DX Z (ip), vehicle: carboxymethylcellulose (CMC) 94 % of control

CCCCC(=O)N/N=C/c1ccc(Cl)cc1
inactive: [13] 93 % of control | [14] 107 % of control | [15] 91 % of control

Cc1ccc(S(=O)(=O)OCC2OC3(COS(=O)(=O)c4ccc(C)cc4)OC(C)(C)OC3C2O)cc1 (stereo not drawn)
inactive: [16] 92 % of control | [17] 87 % of control | [11] 87 % of control

CCC(C)c1nc2c([nH]1)c(=O)n(C)c(=O)n2C (stereo not drawn)
inactive: [18] 110 % of control | [7] 101 % of control | [8] 101 % of control | [9] 104 % of control

O=C1OC(c2cccc(Cl)c2)=N/C1=C\c1cc(Br)cc(Br)c1O
inactive: [19] 92 % of control | [20] 100 % of control | [21] 89 % of control

O=C(O)c1ccc(F)c(F)c1F
inactive: dose: 100.0 mg/kg/injection, schedule: Q04DX002 (ip), vehicle: other 121 % of control | dose: 200.0 mg/kg/injection, schedule: Q04DX002 (ip), vehicle: other 115 % of control

CCC#CC(=O)OCCCCC
inactive: dose: 100.0 mg/kg/injection, schedule: Q04DX002 (ip), vehicle: saline 105 % of control | dose: 200.0 mg/kg/injection, schedule: Q04DX002 (ip), vehicle: saline 102 % of control | dose: 400.0 mg/kg/injection, schedule: Q04DX002 (ip), vehicle: saline 108 % of control

CCCCCP(=O)(CCCCC)C1CCCC1
inactive: dose: 25.0 mg/kg/injection, schedule: Q04DX002 (ip), vehicle: saline with Tween-80 113 % of control | dose: 50.0 mg/kg/injection, schedule: Q04DX002 (ip), vehicle: saline with Tween-80 100 % of control | [10] 94 % of control and 90 % of control

O=C(O)CC1COc2ccccc2O1 (stereo not drawn)
inactive: [13] 91 % of control | [14] 105 % of control | [15] 94 % of control

CCCCOC(=O)c1ccc(OC(=O)NC)cc1
inactive: [11] 107 % of control | [12] 101 % of control | dose: 400.0 mg/kg/injection, schedule: Q01DX009 (ip), vehicle: saline with Tween-80 112 % of control

CCOC(=O)C1CNc2ccccc2N1 (stereo not drawn)
inactive: [16] 93 % of control | [17] 110 % of control | dose: 100.0 mg/kg/injection, schedule: Q04DX003 (ip), vehicle: saline with Tween-80 105 % of control

c1ccc2[nH]c(N3CCOCC3)nc2c1
inactive: [17] 100 % of control | [11] 107 % of control | dose: 100.0 mg/kg/injection, schedule: Q04DX003 (ip), vehicle: saline 96 % of control | [12] 96 % of control | dose: 200.0 mg/kg/injection, schedule: Q04DX003 (ip), vehicle: saline 97 % of control | dose: 400.0 mg/kg/injection, schedule: Q04DX003 (ip), vehicle: saline 103 % of control

COc1ccc(N=C2C(=O)Nc3ccc(Br)cc32)cc1
inactive: [19] 107 % of control | [20] 96 % of control | [21] 107 % of control

CC(=O)Nc1[nH]ncc1C(N)=O
inactive: [1] 100 % of control | [2] 100 % of control | [3] 98 % of control

CC(C)(C)CC(C)(C)N(CSc1ccc([N+](=O)[O-])cc1)CSc1ccc([N+](=O)[O-])cc1
inactive: [7] 102 % of control | [8] 94 % of control | [9] 94 % of control

CC1(C)CC1(F)Cl (stereo not drawn)
inactive: [13] 103 % of control | [14] 97 % of control | [15] 101 % of control

CCC1C(=O)OCc2c1cc1n(c2=O)CCC1 (stereo not drawn)
inactive: dose: 25.0 mg/kg/injection, schedule: Q01DX001 (ip), vehicle: saline 113 % of control | [18] 104 % of control | [7] 104 % of control | [8] 115 % of control

CC1(C)CCC2=C(O1)c1ccccc1C(=O)C2=O
inactive: dose: 25.0 mg/kg/injection, schedule: Q01DX001 (ip), vehicle: Klucel (hydroxypropylcellulose) (HPC) 102 % of control | [1] 98 % of control | [2] 94 % of control and 102 % of control

CC1COCC(C)N1CC(=O)Nc1ccc(S(=O)(=O)c2ccc(NC(=O)CN3C(C)COCC3C)cc2)cc1 (stereo not drawn)
inactive: [13] 107 % of control | [14] 95 % of control | [15] 95 % of control
